Where two headings read alike, the source gives them in different places.
Key:
KRas G12C = KRas G12C (Homo sapiens, UniProt P01116, C118S/C51S/C80L/G12C); experiment: KRas G12C Modification Assay (LCMS detection of covalent adduct); type: binding; conditions: normalized percent of control; tested at 5 μM concentration for 3 hours
In short: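 Covalent modification was read by reverse-phase LC/MS of intact protein after compound exposure, each reaction stopped at its time point with 25 mM acetic acid. Unmodified-protein signal, taken as percent of total, was normalised to untreated protein and reported as POC.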

[1] = tested on: NCI-H358 cells (express KRas G12C), Phospho-ERK; experiment: Cellular inhibition of KRas G12C: Phospho-ERK in NCI-H358 cells; type: cell-based; conditions: Homo sapiens, pERK(Thr202/Tyr204) normalized with GAPDH, NCI-H358 cells, 3 hours, read-out: IC50
In short: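 IC50 derived by 4-parameter fit of GAPDH-normalized pERK(Thr202/Tyr204) signal, as percent of DMSO control. Signal came from in-cell immunodetection with infrared secondaries after 3 h compound exposure of KRas G12C NCI-H358 cells at 0.5% DMSO.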

Structure (SMILES) | POC (KRas G12C) | IC50 ([1]; NCI-H358, 3 h) [nM] | IC50 [1] [nM]
C=CC(=O)N1CCN(c2nc(OC[C@@H]3C[C@@H](OC)CN3C)nc3c2CCN(c2cccc(Cl)c2C(F)(F)F)C3)C[C@@H]1CC#N [Example 332, 2-[(2S)-4-[7-[3-chloro-2-(trifluoromethyl)phenyl]-2-[[(2S,4R)-4-methoxy-1-methyl-pyrrolidin-2-yl]methoxy]-6,8-dihydro-5H-pyrido[3,4-d]pyrimidin-4-yl]-1-prop-2-enoyl-piperazin-2-yl]acetonitrile] | C (“C”>50% POC) | 0.1 to 1000 | 
Cc1cccc2cccc(N3CCc4c(nc(OC[C@@H]5CCCN5C)nc4N4CCN(C(=O)/C=C/CN(C)C)[C@@H](CC#N)C4)C3)c12 [Example 456, 2-((S)-1-((E)-4-(dimethylamino)but-2-enoyl)-4-(7-(8-methylnaphthalen-1-yl)-2-(((S)-1-methylpyrrolidin-2-yl)methoxy)-5,6,7,8-tetrahydropyrido[3,4-d]pyrimidin-4-yl)piperazin-2-yl)acetonitrile] | C (“C”>50% POC) | 0.1 to 1000 | 
C=CC(=O)N1CCN(c2nc(OC[C@@H]3C[C@@H](F)CN3C)nc3c2CCN(c2cncc(F)c2C(F)(F)F)C3)C[C@@H]1CC#N [Example 384, 2-((S)-1-acryloyl-4-(2-(((2S,4R)-4-fluoro-1-methylpyrrolidin-2-yl)methoxy)-7-(5-fluoro-4-(trifluoromethyl)pyridin-3-yl)-5,6,7,8-tetrahydropyrido[3,4-d]pyrimidin-4-yl)piperazin-2-yl)acetonitrile] | C (“C”>50% POC) |  | 0.1 to 1000
C=CC(=O)N1CCN(c2nc(OC[C@@H]3CCCN3C)nc3c2CCN(c2c(C)ccc(F)c2C)C3)C[C@@H]1CC#N [Example 349, 2-((S)-1-acryloyl-4-(7-(3-fluoro-2,6-dimethylphenyl)-2-(((S)-1-methylpyrrolidin-2-yl)methoxy)-5,6,7,8-tetrahydropyrido[3,4-d]pyrimidin-4-yl)piperazin-2-yl)acetonitrile] | C (“C”>50% POC) | 0.1 to 1000 | 
C=CC(=O)N1CCN(c2nc(OCCCN3CCOCC3)nc3c2CCN(c2cc(O)ccc2OC(F)(F)F)C3)CC1 [Example 90, 1-(4-(7-(5-hydroxy-2-(trifluoromethoxy)phenyl)-2-(3-morpholinopropoxy)-5,6,7,8-tetrahydropyrido[3,4-d]pyrimidin-4-yl)piperazin-1-yl)prop-2-en-1-one] | C (“C”>50% POC) |  | 0.1 to 1000
C=CC(=O)N1CCN(c2nc(OCCCN3C[C@H]4C[C@@H]3CO4)nc3c2CCN(c2ccccc2C(F)(F)F)C3)CC1CC#N (stereo partly drawn) [Example 280, 2-(4-(2-(3-((1R,4R)-2-oxa-5-azabicyclo[2.2.1]heptan-5-yl)propoxy)-7-(2-(trifluoromethyl)phenyl)-5,6,7,8-tetrahydropyrido[3,4-d]pyrimidin-4-yl)-1-acryloylpiperazin-2-yl)acetonitrile] | C (“C”>50% POC) |  | 0.1 to 1000
C=CC(=O)N1CCN(c2nc(OC[C@@H]3CCCN3C(C)C)nc3c2CCN(c2cccc4ccccc24)C3)C[C@@H]1CC#N [Example 320, 2-[(2S)-4-[2-[[(2S)-1-isopropylpyrrolidin-2-yl]methoxy]-7-(1-naphthyl)-6,8-dihydro-5H-pyrido[3,4-d]pyrimidin-4-yl]-1-prop-2-enoyl-piperazin-2-yl]acetonitrile] | C (“C”>50% POC) | 0.1 to 1000 | 
C=CC(=O)N1CCN(c2nc(OC[C@@H]3CCCN3C)nc3c2CCN(c2ccc(F)cc2C(F)(F)F)C3)CC1CC#N (stereo partly drawn) [Example 276, 2-(1-acryloyl-4-(7-(4-fluoro-2-(trifluoromethyl)phenyl)-2-(((S)-1-methylpyrrolidin-2-yl)methoxy)-5,6,7,8-tetrahydropyrido[3,4-d]pyrimidin-4-yl)piperazin-2-yl)acetonitrile] | C (“C”>50% POC) | 0.1 to 1000 | 
C=CC(=O)N1C[C@H]2CC[C@@H](C1)N2c1nc(OC(C)CN(C)C)nc2c1CCN(c1cc(O)cc3ccccc13)C2 (stereo partly drawn) [Example 46, 1-((1R,5S)-8-(2-((1-(dimethylamino)propan-2-yl)oxy)-7-(3-hydroxynaphthalen-1-yl)-5,6,7,8-tetrahydropyrido[3,4-d]pyrimidin-4-yl)-3,8-diazabicyclo[3.2.1]octan-3-yl)prop-2-en-1-one] | A (“A”≤25% POC) |  | > 1000
C=CC(=O)N1CCN(c2nc(OC[C@@H]3C[C@@H](OC)CN3C)nc3c2CCN(c2cccc4ccccc24)C3)C[C@@H]1CC#N [Example 327, 2-((S)-1-acryloyl-4-(2-(((2S,4R)-4-methoxy-1-methylpyrrolidin-2-yl)methoxy)-7-(naphthalen-1-yl)-5,6,7,8-tetrahydropyrido[3,4-d]pyrimidin-4-yl)piperazin-2-yl)acetonitrile] | C (“C”>50% POC) | 0.1 to 1000 | 
C=CC(=O)N1CCN(c2nc(OC[C@H]3CCCN3CCO)nc3c2CCN(c2cccc4ccccc24)C3)C[C@@H]1CC#N [Example 329, 2-[(2S)-4-[2-[[(2R)-1-(2-hydroxyethyl)pyrrolidin-2-yl]methoxy]-7-(1-naphthyl)-6,8-dihydro-5H-pyrido[3,4-d]pyrimidin-4-yl]-1-prop-2-enoyl-piperazin-2-yl]acetonitrile] | C (“C”>50% POC) | 0.1 to 1000 | 

Second part, led by results:

POC (KRas G12C) | Structure (SMILES) | IC50 ([1]; NCI-H358, 3 h) [nM] | IC50 [1] [nM]
C (“C”>50% POC) | C=CC(=O)N1CCN(c2nc(OC[C@@H]3CCN(C)C3)nc3c2CCN(c2cc(O)cc4ccccc24)C3)CC1CC#N (stereo partly drawn) [Example 179, 2-[4-[7-(3-hydroxy-1-naphthyl)-2-[[(3R)-1-methylpyrrolidin-3-yl]methoxy]-6,8-dihydro-5H-pyrido[3,4-d]pyrimidin-4-yl]-1-prop-2-enoyl-piperazin-2-yl]acetonitrile] | 0.1 to 1000 | 
C (“C”>50% POC) | C=CC(=O)N1CCN(c2nc(OCCCN3C[C@@H]4C[C@H]3CO4)nc3c2CCN(c2cc(O)cc4ccccc24)C3)CC1CC#N (stereo partly drawn) [Example 153, 2-[4-[7-(3-hydroxy-1-naphthyl)-2-[3-[(1S,4S)-2-oxa-5-azabicyclo[2.2.1]heptan-5-yl]propoxy]-6,8-dihydro-5H-pyrido[3,4-d]pyrimidin-4-yl]-1-prop-2-enoyl-piperazin-2-yl]acetonitrile] |  | 0.1 to 1000
C (“C”>50% POC) | C=CC(=O)N1CCN(c2nc(O[C@H](C)CN(C)C)nc3c2CCN(c2cc(O)cc4ccccc24)C3)CC1CC#N (stereo partly drawn) [Example 150, 2-(1-acryloyl-4-(2-(((R)-1-(dimethylamino)propan-2-yl)oxy)-7-(3-hydroxynaphthalen-1-yl)-5,6,7,8-tetrahydropyrido[3,4-d]pyrimidin-4-yl)piperazin-2-yl)acetonitrile] | 0.1 to 1000 | 
C (“C”>50% POC) | C=CC(=O)N1CCN(c2nc(OC[C@@H]3CCCN3C)nc3c2CCN(c2cc(O)cc4ccccc24)C3)C(CO)C1 (stereo partly drawn) [Example 169, 1-[3-(hydroxymethyl)-4-[7-(3-hydroxy-1-naphthyl)-2-[[(2S)-1-methylpyrrolidin-2-yl]methoxy]-6,8-dihydro-5H-pyrido[3,4-d]pyrimidin-4-yl]piperazin-1-yl]prop-2-en-1-one] | 0.1 to 1000 | 
C (“C”>50% POC) | C=CC(=O)N1CCN(c2nc(OC[C@H]3CCCN3C)nc3c2CCN(c2cc(O)cc4ccccc24)C3)CC1CC#N (stereo partly drawn) [Example 178, 2-[4-[7-(3-hydroxy-1-naphthyl)-2-[[(2R)-1-methylpyrrolidin-2-yl]methoxy]-6,8-dihydro-5H-pyrido[3,4-d]pyrimidin-4-yl]-1-prop-2-enoyl-piperazin-2-yl]acetonitrile] | 0.1 to 1000 | 
C (“C”>50% POC) | C=CC(=O)N1CCN(c2nc(OCC(C)N(C)C)nc3c2CCN(c2cc(O)cc4ccccc24)C3)CC1 (stereo not drawn) [Example 73, 1-(4-(2-(2-(dimethylamino)propoxy)-7-(3-hydroxynaphthalen-1-yl)-5,6,7,8-tetrahydropyrido[3,4-d]pyrimidin-4-yl)piperazin-1-yl)prop-2-en-1-one] | > 1000 | 
C (“C”>50% POC) | C=CC(=O)N1CCN(c2nc(OCCN3CCOCC3)nc3c2CCN(c2cc(O)cc4ccccc24)C3)CC1 [Example 117, 1-(4-(7-(3-hydroxynaphthalen-1-yl)-2-(2-morpholinoethoxy)-5,6,7,8-tetrahydropyrido[3,4-d]pyrimidin-4-yl)piperazin-1-yl)prop-2-en-1-one] | > 1000 | 
C (“C”>50% POC) | C=CC(=O)N1CCN(c2nc(OC[C@@H](O)CN3CCOCC3)nc3c2CCN(c2cc(O)cc4ccccc24)C3)CC1 (single isomer, unassigned) [Example 216] | > 1000 | 
C (“C”>50% POC) | C=CC(=O)N1CCN(c2nc(OCCN(C)CCOC)nc3c2CCN(c2cc(O)cc4ccccc24)C3)CC1 [Example 107, 1-(4-(7-(3-hydroxynaphthalen-1-yl)-2-(2-((2-methoxyethyl)(methyl)amino)ethoxy)-5,6,7,8-tetrahydropyrido[3,4-d]pyrimidin-4-yl)piperazin-1-yl)prop-2-en-1-one] | > 1000 | 
C (“C”>50% POC) | C=CC(=O)N1CCN(c2nc(O[C@H](C)CN3CCCCC3)nc3c2CCN(c2cc(O)cc4ccccc24)C3)CC1 [Example 75, (R)-1-(4-(7-(3-hydroxynaphthalen-1-yl)-2-((1-(piperidin-1-yl)propan-2-yl)oxy)-5,6,7,8-tetrahydropyrido[3,4-d]pyrimidin-4-yl)piperazin-1-yl)prop-2-en-1-one] | 0.1 to 1000 | 

— patent publication US10125134B2 (Mirati Therapeutics, Inc., priority 2016, dated 2018)
